From paper PMC11578313, “Miniaturized Modular Click Chemistry‐enabled Rapid Discovery of Unique SARS‐CoV‐2 M^pro Inhibitors With Robust Potency and Drug‐like Profile” (Advanced Science, 2024)
Where two headings read alike, the source gives them in different places.

Assay: In vivo pharmacokinetic study in male ICR mice (compound alone)
Conditions: male, ICR, mouse, plasma
Description: The pharmacokinetics profile of the newly developed antiviral compound C5N17B was subsequently evaluated in male ICR mice that were free from specific pathogens, aiming to assess its potential for therapeutic application in vivo.
A total of six male ICR mice were randomly assigned to two groups. One group received the test drug intravenously at a dosage of 2 mg kg^−1, while the other group received oral administration at a dosage of 10 mg kg^−1. To prepare solutions of C5N17B, 2.39 mg compound was dissolved in a mixture of 0.119 mL DMSO, 0.238 mL polyoxyl 15 hydroxystearate (Solutol), and 2.027 mL normal saline. For the intravenous group, blood samples were collected from the sinus jugular into heparinized centrifugation tubes at various time points after dosing: 5, 15, 30 min, 1, 2, 4, 6, 8, and 24 h. As for the oral administration group, blood samples were collected at similar time points (0.05 mL of blood each time). The collected blood samples were then centrifuged at a speed of 4000 rpm for 10 min to separate plasma, which was subsequently stored at −20 °C until further LC‐MS analysis to determine the concentration of C5N17B. Briefly, the analysis involved adding 20 µL of plasma, sample calibration standard, quality control, and dilution quality control, and blank samples into respective wells on a 96‐well plate. Then each sample was quenched with 200 µL of internal standard (the blank sample was quenched with 200 µL of ACN: MeOH = 1:1), followed by vortex‐mixed for 5 min, and centrifuged for 0.5 min at 4000 rpm, 4 °C. Next, a 100 µL portion of supernatant was transferred to another clean 96‐well plate and diluted with 100 µL of water, vortex‐mixed for 5 min and centrifuged for 10 min at 4000 rpm, 4 °C, then the sample was injected for LC‐MS/MS analysis. All samples were quantified using an LC‐MS/MS‐AR Triple Quad 5500+ (SCIEX, USA) and the ExionLC liquid phase system. The mobile phase was 0.1% formic acid‐water/ACN with gradient elute at a flow rate of 0.8 mL mi^−1n (total time 2.20 min), and the detection wavelength was 225 nm. All blood samples were centrifuged using an Eppendorf 5424R centrifuge and quantified using an LC‐MS/MS‐AR Triple Quad 5500+ (SCIEX, USA). The pharmacokinetic parameters were calculated by WinNolin 8.2 software.

## Cc1cncc(C(=O)N2C[C@H]3CC[C@@H](C2)N3[C@H](c2cccc(F)c2)c2cn(CCc3ccsc3)nn2)c1 [Compound C5N17B]
iv, 2 mg/kg, i.v. 2 mg kg^−1, male ICR mice, n = 3, read-out: AUC0‐∞, i.v.
  AUC: 65.9 ± 14.9 ng·h/mL
iv, 2 mg/kg, i.v. 2 mg kg^−1, male ICR mice, n = 3, read-out: CL, i.v. (converted)
  clearance: 524 mL/min/kg
iv, 2 mg/kg, i.v. 2 mg kg^−1, male ICR mice, n = 3, read-out: Cmax, i.v.
  Cmax: 237 ± 53.6 ng/mL
iv, 2 mg/kg, i.v. 2 mg kg^−1, male ICR mice, n = 3, read-out: MRT0‐t, i.v.
  MRT: 5.81 ± 894 min
iv, 2 mg/kg, i.v. 2 mg kg^−1, male ICR mice, n = 3, read-out: MRT0‐∞, i.v.
  MRT: 6.96 ± 0.391 min
iv, 2 mg/kg, i.v. 2 mg kg^−1, male ICR mice, n = 3, read-out: Tmax, i.v.
  Tmax: 4.98 min
iv, 2 mg/kg, i.v. 2 mg kg^−1, male ICR mice, n = 3, read-out: t1/2, i.v. (converted)
  half-life: 6.6 min
oral, 10 mg kg^−1, p.o. 10 mg kg^−1 vs i.v. 2 mg kg^−1, male ICR mice, read-out: F (oral bioavailability)
  bioavailability: 13%
oral, 10 mg/kg, PO 10 mg/kg (10MPK), 5 min, mean of mice 4#-6#, read-out: Plasma concentration, Mean
  concentration at 5 min: 40.6 ng/mL
oral, 10 mg/kg, PO 10 mg/kg (10MPK), 15 min, mouse plasma, individual mice 4-6, read-out: Plasma concentration (Calculated Concentration)
  concentration at 15 min: 18 ng/mL
oral, 10 mg/kg, PO 10 mg/kg (10MPK), 30 min, sample marked "re", individual mouse, read-out: Plasma concentration (Calculated Concentration), re-analysis
  concentration at 30 min: 4.52 ng/mL
oral, 10 mg/kg, PO 10 mg/kg (10MPK), 1 hr, samples marked "re", individual mice, read-out: Plasma concentration (Calculated Concentration), re-analysis
  concentration at 1 hr: 7.4 ng/mL
oral, 10 mg/kg, PO 10 mg/kg (10MPK), 2 hr, sample marked "re", individual mouse, read-out: Plasma concentration (Calculated Concentration), re-analysis
  concentration at 2 hr: 15.7 ng/mL
oral, 10 mg/kg, PO 10 mg/kg (10MPK), 4 hr, mouse plasma, individual mice 4-6, read-out: Plasma concentration (Calculated Concentration)
  concentration at 4 h: 5.85 ng/mL
oral, 10 mg/kg, PO 10 mg/kg (10MPK), 6 hr, mouse plasma, individual mice 4-6, read-out: Plasma concentration (Calculated Concentration)
  concentration at 6 h: 2.52 ng/mL
po, 10 mg/kg, PO 10 mg/kg (10MPK), individual mice 4#-6#, read-out: Tmax
  Tmax: 5 min
po, 10 mg/kg, PO 10 mg/kg (10MPK), mean of mice 4#-6#, read-out: T1/2, Mean (converted)
  half-life: 213 min
po, 10 mg/kg, PO 10 mg/kg (10MPK), mean of mice 4#-6#, read-out: Tmax, Mean
  Tmax: 5 min
po, 10 mg/kg, PO 10 mg/kg, 0.50 h, mean of mice 4#-6#, read-out: plasma concentration, Mean
  concentration at 0.5 h: 8.28 ng/mL
po, 10 mg/kg, PO 10 mg/kg, 1 h, mean of mice 4#-6#
  concentration at 1 h: 7.2 ng/mL
po, 10 mg/kg, PO 10 mg/kg, 2 h, mean of mice 4#-6#
  concentration at 2 h: 10.5 ng/mL
po, 10 mg/kg, PO 10 mg/kg, 4 h, individual mice 4#-6#, read-out: plasma concentration
  concentration at 4 h: 5.85 ng/mL
po, 10 mg/kg, PO 10 mg/kg, 4 h, mean of mice 4#-6#, read-out: plasma concentration, Mean
  concentration at 4 h: 5.98 ng/mL
po, 10 mg/kg, PO 10 mg/kg, 6 h, individual mice 4#-6#, read-out: plasma concentration
  concentration at 6 h: 2.52 ng/mL
po, 10 mg/kg, PO 10 mg/kg, 6 h, mean (only 5# quantifiable), read-out: plasma concentration, Mean
  concentration at 6 h: 2.52 ng/mL
po, 10 mg/kg, PO 10 mg/kg, individual mice 4#-6#, read-out: AUC0-t
  AUC(0-t): 30.4 ng·h/mL
po, 10 mg/kg, PO 10 mg/kg, individual mice 4#-6#, read-out: AUC0-∞
  AUC(0-inf): 59.6 ng·h/mL
po, 10 mg/kg, PO 10 mg/kg, individual mice 4#-6#, read-out: F
  bioavailability: 9.56%
po, 10 mg/kg, PO 10 mg/kg, individual mice 4#-6#, read-out: MRT0-t
  MRT last: 97.2 min
po, 10 mg/kg, PO 10 mg/kg, individual mice 4-6, read-out: AUCINF_obs
  AUC(0-inf): 59.6 ng·h/mL
po, 10 mg/kg, PO 10 mg/kg, individual mice 4-6, read-out: AUCINF_pred
  AUC(0-inf): 55 ng·h/mL
po, 10 mg/kg, PO 10 mg/kg, individual mice 4-6, read-out: AUCall
  AUC: 30.4 ng·h/mL
po, 10 mg/kg, PO 10 mg/kg, individual mice 4-6, read-out: AUClast
  AUC(0-t): 30.4 ng·h/mL
po, 10 mg/kg, PO 10 mg/kg, individual mice 4-6, read-out: Cl_F_obs (converted)
  CL/F: 2800 mL/min/kg
po, 10 mg/kg, PO 10 mg/kg, individual mice 4-6, read-out: MRTlast
  MRT last: 97.3 min
po, 10 mg/kg, PO 10 mg/kg, individual mice 4-6, read-out: Tmax
  Tmax: 5 min
po, 10 mg/kg, PO 10 mg/kg, mean of mice 4#-6#, read-out: AUC0-t, Mean
  AUC(0-t): 41.3 ng·h/mL
po, 10 mg/kg, PO 10 mg/kg, mean of mice 4#-6#, read-out: AUC0-∞, Mean
  AUC(0-inf): 71.9 ng·h/mL
po, 10 mg/kg, PO 10 mg/kg, mean of mice 4#-6#, read-out: Cmax, Mean
  Cmax: 40.6 ng/mL
po, 10 mg/kg, PO 10 mg/kg, mean of mice 4#-6#, read-out: MRT0-t, Mean
  MRT last: 107 min
po, 10 mg/kg, PO 10 mg/kg, mean of mice 4#-6#, read-out: MRT0-∞, Mean
  MRT inf: 300 min
po, 10 mg/kg, p.o. 10 mg kg^−1, male ICR mice, n = 3, read-out: AUC0‐t, p.o.
  AUC: 41.3 ± 9.5 ng·h/mL
po, 10 mg/kg, p.o. 10 mg kg^−1, male ICR mice, n = 3, read-out: AUC0‐∞, p.o.
  AUC: 71.9 ± 26 ng·h/mL
po, 10 mg/kg, p.o. 10 mg kg^−1, male ICR mice, n = 3, read-out: Cmax, p.o.
  Cmax: 40.6 ± 24.1 ng/mL
po, 10 mg/kg, p.o. 10 mg kg^−1, male ICR mice, n = 3, read-out: MRT0‐t, p.o.
  MRT: 107 ± 8.7 min
po, 10 mg/kg, p.o. 10 mg kg^−1, male ICR mice, n = 3, read-out: MRT0‐∞, p.o.
  MRT: 300 ± 108 min
po, 10 mg/kg, p.o. 10 mg kg^−1, male ICR mice, n = 3, read-out: Tmax, p.o.
  Tmax: 4.8 min
po, 10 mg/kg, p.o. 10 mg kg^−1, male ICR mice, n = 3, read-out: t1/2, p.o. (converted)
  half-life: 213 ± 72 min
po, 10 mg/kg, p.o. 10 mg kg^−1, male ICR mice, read-out: Cmax, p.o.
  Cmax: 78.6 nM
